Bridge positions count the residues as written; N and C are the ends. Square brackets hold non-standard residues; d marks the D form. Peptide text beside a SMILES is read from it. * marks the point of attachment. ξ: configuration not given here. Phe(4-COOH) = N[C@@H](Cc1ccc(C(=O)O)cc1)C(=O)O; Bip = N[C@@H](Cc1ccc(-c2ccccc2)cc1)C(=O)O; NH(CH2)14COOH = O=C(O)CCCCCCCCCCCCCCN*; Phe(3-Me) = Cc1cccc(C[C@H](N)C(=O)O)c1; hArg = N=C(N)NCCCC[C@H](N)C(=O)O; Cha = N[C@@H](CC1CCCCC1)C(=O)O; Thr(3ξ) = CC(O)[C@H](N)C(=O)O; Carboxymethyl = O=C(O)C*; Orn = NCCC[C@H](N)C(=O)O; Aun = NCCCCCCCCCCC(=O)O; Dab = NCC[C@H](N)C(=O)O; Dap = NC[C@H](N)C(=O)O
Target: T1, PD-1/PD-L1 interaction (PE-labeled human PD-L1-Ig binding to Jurkat cell line over-expressing human PD-1) (Homo sapiens, UniProt Q15116)
T1 construct: expressed in transfected cells; host or cells: Jurkat
T1 sequence (Q15116 25-288): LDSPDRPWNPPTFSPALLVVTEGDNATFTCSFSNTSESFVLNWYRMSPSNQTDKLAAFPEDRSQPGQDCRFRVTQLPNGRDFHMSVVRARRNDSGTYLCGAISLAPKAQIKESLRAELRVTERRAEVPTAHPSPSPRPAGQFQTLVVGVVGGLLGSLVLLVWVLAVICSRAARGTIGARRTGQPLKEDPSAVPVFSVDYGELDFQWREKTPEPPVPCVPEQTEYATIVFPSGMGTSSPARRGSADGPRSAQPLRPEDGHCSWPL
Test: Jurkat-PD-1 Cell Binding High-Content Screening Assay (CBA)
Format: cell-based
Conditions: Jurkat cell line over-expressing human PD-1; PE-labeled PD-L1-Ig 20 nM final; read-out: Jurkat hPD1-PDL1 IC50
Outline: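 Binding of fluorescent PD-L1-Ig (phycoerythrin on Ig tag, 20 nM final, 1 h) measured by high-content imaging of fixed, Hoechst-counterstained Jurkat-hPD-1 cells. Compound added 2 h at 37° C beforehand, in DMEM with 10% fetal calf serum.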

| SMILES | IC50 [nM] |
| --- | --- |
| CC(C)C[C@H]1NC(=O)[C@H](CCCN)NC(=O)[C@H](CCN)NC(=O)[C@H](Cc2ccc(-c3ccccc3)cc2)NC(=O)[C@H](C(C)C)NC(=O)[C@H](Cc2c[nH]c3ccccc23)NC(=O)[C@H](CC(=O)O)NC(=O)[C@H](Cc2ccc(OCC(=O)O)cc2)NC(=O)[C@H](CN)NC(=O)CSC[C@@H](C(=O)N[C@@H](CC(N)=O)C(=O)NCC(=O)NCCCCCCCCCCCCCCC(=O)O)NC(=O)[C@H](CO)NC(=O)[C@H](C(C)C)NC(=O)[C@H](CC2CCCCC2)NC(=O)[C@H](CCN)NC1=O [Compound 3008] ({CH2CO}-[Dap]Y(Carboxymethyl)DWV[Bip][Dab][Orn][dL][Dab][Cha]VSCNG-{NH(CH2)14COOH}; thioether N-14) | 552 |
| CC(C)C[C@@H]1NC(=O)[C@H](Cc2c[nH]c3ccccc23)NC(=O)[C@H](CC(=O)O)NC(=O)[C@H](Cc2ccc(C(=O)O)cc2)NC(=O)[C@H](CCCCNC(=N)N)NC(=O)CSC[C@@H](C(=O)N[C@@H](C)C(=O)N[C@@H](CCN)C(=O)NCCCCCCCCCCCCCCC(=O)O)NC(=O)[C@H](CO)NC(=O)[C@H](C(C)C)NC(=O)[C@H](CC2CCCCC2)NC(=O)[C@H](Cc2c[nH]cn2)NC(=O)[C@@H](CC(C)C)NC(=O)[C@H](CCCN)NC(=O)[C@H](C(C)C)NC(=O)[C@H](Cc2ccc(-c3ccccc3)cc2)NC1=O [Compound 3019] ({CH2CO}-[hArg][Phe(4-COOH)]DWL[Bip]V[Orn][dL]H[Cha]VSCA[Dab]-{NH(CH2)14COOH}; thioether N-14) | 336 |
| CC(C)C[C@H]1NC(=O)[C@H](CCCN)NC(=O)[C@H](C(C)C)NC(=O)[C@H](Cc2ccc(-c3ccccc3)cc2)NC(=O)[C@H](C(C)C)NC(=O)[C@H](Cc2c[nH]c3ccccc23)NC(=O)[C@H](CC(=O)O)NC(=O)[C@H](Cc2ccc(C(=O)O)cc2)NC(=O)[C@H](C(C)O)NC(=O)CSC[C@@H](C(=O)N[C@@H](C)C(=O)N[C@@H](CCCCN)C(=O)NCCCCCCCCCCCCCCC(=O)O)NC(=O)[C@H](C(C)O)NC(=O)[C@H](C(C)C)NC(=O)[C@H](CC2CCCCC2)NC(=O)[C@H](CCN)NC1=O (stereo partly drawn) [Compound 3021] ({CH2CO}-[Thr(3ξ)][Phe(4-COOH)]DWV[Bip]V[Orn][dL][Dab][Cha]V[Thr(3ξ)]CAK-{NH(CH2)14COOH}; thioether N-14) | 130 |

Stronger by IC50, values ahead:

| IC50 [nM] | SMILES |
| --- | --- |
| 94.5 | CC(C)C[C@H]1NC(=O)[C@H](CCCN)NC(=O)[C@H](C(C)C)NC(=O)[C@H](Cc2ccc(-c3ccccc3)cc2)NC(=O)[C@H](C(C)C)NC(=O)[C@H](Cc2c[nH]c3ccccc23)NC(=O)[C@H](CC(=O)O)NC(=O)[C@H](Cc2ccc(C(=O)O)cc2)NC(=O)[C@H](CCCCNC(=N)N)NC(=O)CSC[C@@H](C(=O)N[C@@H](C)C(=O)N[C@@H](CCCCN)C(=O)NCCCCCCCCCCCCCCC(=O)O)NC(=O)[C@H](C(C)O)NC(=O)[C@H](C(C)C)NC(=O)[C@H](CC2CCCCC2)NC(=O)[C@H](CCN)NC1=O (stereo partly drawn) [Compound 3016] ({CH2CO}-[hArg][Phe(4-COOH)]DWV[Bip]V[Orn][dL][Dab][Cha]V[Thr(3ξ)]CAK-{NH(CH2)14COOH}; thioether N-14) |
| 12 | Cc1cccc(C[C@@H]2NC(=O)[C@H](CC(=O)O)NC(=O)[C@H](Cc3ccc(OCC(=O)O)cc3)NC(=O)[C@H](C(C)O)NC(=O)CSC[C@@H](C(=O)N[C@@H](C)C(=O)N[C@@H](CCN)C(=O)NCCCCCCCCCCC(=O)O)NC(=O)[C@H](C(C)O)NC(=O)[C@H](C(C)C)NC(=O)[C@H](CC3CCCCC3)NC(=O)[C@H](CCN)NC(=O)[C@@H](CC(C)C)NC(=O)[C@H](CCCN)NC(=O)[C@H](C(C)C)NC(=O)[C@H](Cc3ccc(-c4ccccc4)cc3)NC(=O)[C@H](C(C)C)NC2=O)c1 (stereo partly drawn) [Compound 3020] ({CH2CO}-[Thr(3ξ)]Y(Carboxymethyl)D[Phe(3-Me)]V[Bip]V[Orn][dL][Dab][Cha]V[Thr(3ξ)]CA[Dab][Aun]-OH; thioether N-14) |

— US20260022142A1, “MACROCYCLIC IMMUNOMODULATORS” (Bristol-Myers Squibb Company, priority 2022, published 2026)
